Measured values taken from patent publication US4046914A, “Therapeutically active substituted saturated and mono-and polyunsaturated alkyl-glycerylethers” (Astra Nutrition AB, priority 1975, dated 1977).

Test system: He La cells
Experiment: growth of He La cells (cell counts in Burker chamber)
Format: cell-based
Method: Hank's solution containing 0,5 % hydrolysate of lactalbumin, 7 % calf serum and with 7 ml 0,15 % sodium bicarbonate and 20-40.000 I.U. of penicillin and streptomycin added per 100 ml was used for the cultivation of the He La cells. pH was 7,4 at the beginning of the experiment. The medium was changed 2 times per week. A suspension of He La cells was obtained by treatment with versene. The glycerol ethers were dissolved in the medium in concentrations of 1, 5, 25 and 100 μg/ml. 1,5 ml of cell suspension, containing 10^6 cells/ml, was added to 18,5 ml medium. The growth was registered by counting the cells in a Burker chamber.

SMILES: CCCCCCCCCCCCCCC(COCC(O)CO)OC (centres unmarked) [AII, 1-O-(2-methoxyhexadecyl)-glycerol]
- cytostatic action (25 μg/ml): acted clearly cytostatically
- time to completely suppressed growth (25 μg/ml): about 15 days
- effect on He La cell growth (25 μg/ml, 14 days at 37° C): growth inhibiting and later on a cell killing effect
- Cell counts (Table II, 5 μg/ml, 1 day, controls 54): 201
- Cell counts (Table II, 5 μg/ml, 3 days, controls 122): 137
- Cell counts (Table II, 5 μg/ml, 6 days, controls 186): 225
- Cell counts (Table II, 25 μg/ml, 1 day, controls 54): 206
- Cell counts (Table II, 25 μg/ml, 3 days, controls 122): 91
- Cell counts (Table II, 25 μg/ml, 6 days, controls 186): 148
- Cell counts (Table II, 100 μg/ml, 1 day, controls 54): 157
- Cell counts (Table II, 100 μg/ml, 3 days, controls 122): All cells dead
- Cell counts (Table II, 100 μg/ml, 6 days, controls 186): All cells dead
- Cell counts (Table III, 5 μg/ml, 1 day, controls 78): 63
- Cell counts (Table III, 5 μg/ml, 2 days, controls 98): 113
- Cell counts (Table III, 5 μg/ml, 6 days, controls 228): 205
- Cell counts (Table III, 5 μg/ml, 10 days, controls 359): 407
- Cell counts (Table III, 25 μg/ml, 1 day, controls 78): 64
- Cell counts (Table III, 25 μg/ml, 2 days, controls 98): 154
- Cell counts (Table III, 25 μg/ml, 6 days, controls 228): 160
- Cell counts (Table III, 25 μg/ml, 10 days, controls 359): 272
- Cell counts (Table IV, 1 μg/ml, 2 days, controls 138): 121
- Cell counts (Table IV, 1 μg/ml, 5 days, controls 172): 271
- Cell counts (Table IV, 1 μg/ml, 8 days, controls 520): 598
- Cell counts (Table IV, 1 μg/ml, 11 days, controls 757): 546
- Cell counts (Table IV, 1 μg/ml, 14 days, controls 649): 557
- Cell counts (Table IV, 5 μg/ml, 2 days, controls 138): 113
- Cell counts (Table IV, 5 μg/ml, 5 days, controls 172): 200
- Cell counts (Table IV, 5 μg/ml, 8 days, controls 520): 488
- Cell counts (Table IV, 5 μg/ml, 11 days, controls 757): 546
- Cell counts (Table IV, 5 μg/ml, 14 days, controls 649): 637
- Cell counts (Table IV, 25 μg/ml, 2 days, controls 138): 107
- Cell counts (Table IV, 25 μg/ml, 5 days, controls 172): 107
- Cell counts (Table IV, 25 μg/ml, 8 days, controls 520): 241
- Cell counts (Table IV, 25 μg/ml, 11 days, controls 757): 112
- Cell counts (Table IV, 25 μg/ml, 14 days, controls 649): 0
- Cell counts (Table V, 1 μg/ml, 3 days, controls 210): 293
- Cell counts (Table V, 1 μg/ml, 6 days after transfer, controls 176): 169
- Cell counts (Table V, 1 μg/ml, 8 days, controls 510): 498
- Cell counts (Table V, 5 μg/ml, 3 days, controls 210): 246
- Cell counts (Table V, 5 μg/ml, 6 days after transfer, controls 176): 136
- Cell counts (Table V, 5 μg/ml, 8 days, controls 510): 517
